Experimental data published in the NIST ThermoML archive (doi:10.1021/acs.jced.7b01018).

Details: Liquid, Frequency=2 MHz, Single path-length method

CCO [ethanol]
Details | speed of sound [m/s]
323.31 K, 1410 kPa | 1070.7
323.31 K, 5245 kPa | 1096.8
323.31 K, 11101 kPa | 1135
323.31 K, 17687 kPa | 1174.5
323.31 K, 23114 kPa | 1204.2
323.31 K, 30237 kPa | 1241.9
323.31 K, 36831 kPa | 1274.5
323.31 K, 43809 kPa | 1306
323.31 K, 50864 kPa | 1337.3
323.31 K, 58500 kPa | 1369.4
323.31 K, 62862 kPa | 1386.2
347.1 K, 1446 kPa | 991.29
347.1 K, 4092 kPa | 1011.8
347.1 K, 7163 kPa | 1035
347.1 K, 14616 kPa | 1085.6
347.1 K, 21177 kPa | 1126.4
347.1 K, 28408 kPa | 1168.1
347.1 K, 35022 kPa | 1203.4
347.1 K, 42067 kPa | 1238.6
347.1 K, 48843 kPa | 1270.3
347.1 K, 54137 kPa | 1294.1
347.1 K, 58348 kPa | 1312.6
347.1 K, 62859 kPa | 1331.6
369.38 K, 1432 kPa | 914.53
369.38 K, 3923 kPa | 936.5
369.38 K, 7109 kPa | 963.26
369.38 K, 11382 kPa | 996.24
369.38 K, 19601 kPa | 1053.8
369.38 K, 27704 kPa | 1104.7
369.38 K, 33060 kPa | 1135.3
369.38 K, 41165 kPa | 1179.1
369.38 K, 49420 kPa | 1220.3
369.38 K, 54796 kPa | 1246.1
369.38 K, 58367 kPa | 1261.5
369.38 K, 65148 kPa | 1291.2
397.28 K, 1546 kPa | 811.26
397.28 K, 4302 kPa | 840.39
397.28 K, 7333 kPa | 870.18
397.28 K, 12482 kPa | 915.79
397.28 K, 18105 kPa | 960.62
397.28 K, 24432 kPa | 1006.2
397.28 K, 29996 kPa | 1043.3
397.28 K, 36074 kPa | 1080.7
397.28 K, 44752 kPa | 1129.5
397.28 K, 49805 kPa | 1156
397.28 K, 58415 kPa | 1198.6
397.28 K, 63790 kPa | 1223.5
422.9 K, 1514 kPa | 701.53
422.9 K, 5675 kPa | 755.36
422.9 K, 9530 kPa | 798.44
422.9 K, 15206 kPa | 853.77
422.9 K, 23492 kPa | 923.37
422.9 K, 31793 kPa | 984.06
422.9 K, 38446 kPa | 1027.7
422.9 K, 47571 kPa | 1082
422.9 K, 53132 kPa | 1112.2
422.9 K, 58734 kPa | 1141.2
422.9 K, 63754 kPa | 1166.2
